According to US7235267B1, “Brain cell or nerve cell-protecting agents comprising medicinal ginseng” (priority 1999, dated 2007):
Read-outs that look alike come from different tables or passages of the source.

Assays:
[1] = Observation of animals for ill or adverse effects; assay type: in vivo; details: present experiments
[2] = Cerebral blood flow, brain temperature, blood pressure; details: intravenous infusion 60 μg/day
[3] = test system: cultured nerve cells; details: cited from earlier work
[4] = test system: SH-SP rats with MCA permanent occlusion; test: Cerebral infarct lesion and brain edema after ginsenoside Rb1 (intravenous or intracerebroventricular); assay type: in vivo, rat; details: intravenous 6 μg/day for 28 days after MCA permanent occlusion
Procedure: Male SH-SP rats, at the age of 12-13 weeks, were used. Animals were bred in a room furnished with 12 hours light and dark cycles and water and feeds were supplied ad libitum. The cortical branch of the left middle cerebral artery (MCA) of SH-SP rats were coagulated and cut under inhalation anesthesia. Immediately after MCA permanent occlusion, ginsenoside Rb1 dissolved in physiological saline was infused once intravenously (6 μg or 60 μg), subsequently intravenously infused continuously for 28 days by using an Alza osmotic minipump (6 μg/day or 60 μg/day).
At 32 days after MCA permanent occlusion, the SH-SP rats were anesthetized with chloral hydrate, and they were perfused and fixed transcardially with 0.1 mole phosphate buffer containing 4% paraformaldehyde. The brains were dissected out and cerebrocortical infarct lesions were photographed.
In Japanese Patent Application No. Hei 10-365560, PCT/JP99/02550 (Brain cell or nerve cell-protective agents comprising ginsenoside Rb1), Japanese Patent Application No. Hei 11-340850, PCT/JP99/06804 (Cerebrovascular regeneration/reconstruction promoters and nerve tissue secondary degeneration inhibitors comprising ginsenoside Rb1), the present inventors (Sakanaka and Tanaka) measured areas of the left cerebral hemispheres and the left cerebrocortical infarct lesions on the photographs by using an image analyzer. […]

[5] = intracerebroventricular administration; cited from earlier work
[6] = intravenous administration (Saito et al. 1980); cited from earlier work
[7] = intravenously administered small amount (prior application); cited from earlier work
[8] = test system: SH-SP rats with MCA permanent occlusion; details: cited from earlier work

## CC(C)=CCC[C@](C)(O[C@@H]1O[C@H](CO[C@@H]2O[C@H](CO)[C@@H](O)[C@H](O)[C@H]2O)[C@@H](O)[C@H](O)[C@H]1O)[C@H]1CC[C@]2(C)[C@@H]1[C@H](O)C[C@@H]1[C@@]3(C)CC[C@H](O[C@@H]4O[C@H](CO)[C@@H](O)[C@H](O)[C@H]4O[C@@H]4O[C@H](CO)[C@@H](O)[C@H](O)[C@H]4O)C(C)(C)[C@@H]3CC[C@]12C [ginsenoside Rb1]
[1]
  ill / adverse effects on careful observation of animals: No adverse effect was detected
[2]
  cerebral blood flow: does not affect
[3]; 1 fg/ml and 100 fg/ml (tested 1, 100 and 10^5 fg/ml)
  suppression of apoptosis-like nerve cell death and Bcl-xL protein expression in nerve cells: significant effects
[3]; 100 fg/ml
  formation of lipid peroxides: slight suppressive action
[3]; Kim et al. 1998, Liu and Zhang 1995
  concentrations reducing neurotoxicity of glutamic acid: 0.11 to 11 µg/mL
[3]; Tanaka et al. 1998
  concentration that may protect against apoptosis-like death: 500 µM
[3]; added in advance to the culture medium
  concentrations reducing necrosis of nerve cells caused by ferrous sulfate: 0.1 to 100 fg/mL
[3]; high concentration of ginsenoside Rb1, inventors' cell culture experiments
  nerve cell death: did not suppress
[3]; not treated with SNP
  metabolic activity of control cultured nerve cells: no effect
[3]; prior application
  concentrations enhancing expression of Bcl-xL in cultured neurons: 1˜100 fg/ml
[3]; sodium nitroprusside treatment (prior application)
  extracellular concentrations protecting nerve cells injured by SNP: 1 to 100 fg/mL
[4]
  difference in size between left and right cerebral hemisphere (brain edema): no difference in size
[4]; all 8 cases
  cerebral infarct lesions (photographs at 32 days): obviously reduced
[5]
  brain temperature, cerebral blood flow or blood pressure: no effects
[6]
  LD50: approximately 448 mg/kg
[7]
  transfer into the brain and nervous systems: transferred quickly
[8]; ginsenoside Rb1 intracerebroventricular infusion immediately after permanent MCA occlusion
  ischemia-induced place navigation disability: ameliorated
[8]; ginsenoside Rb1 repetitive or continuous intravenous 6 μg or 60 μg/day
  ischemia-induced place navigation disability: significantly ameliorated
